Numbers after ± are expanded uncertainties.
Tests used:
[1] = 100 kPa, Liquid; for viscosity: Falling or rolling sphere viscometry; for mass density: Vibrating tube method
[2] = xn = mol fraction of the nth substance listed; settings: 100 kPa, Liquid, x1 = 1; for viscosity: Falling or rolling sphere viscometry; for mass density: Vibrating tube method

Structure (SMILES)	viscosity ([1]; 293.15 K)	mass density ([1]; 293.15 K)	viscosity ([1]; 298.15 K)	mass density ([1]; 298.15 K)	viscosity ([1]; 303.15 K)	mass density ([1]; 303.15 K)	viscosity ([1]; 308.15 K)	mass density ([1]; 308.15 K)	viscosity ([1]; 313.15 K)	mass density ([1]; 313.15 K)	viscosity ([1]; 318.15 K)	mass density ([1]; 318.15 K)	viscosity ([1]; 323.15 K)	mass density ([1]; 323.15 K)	viscosity ([2]; 293.15 K)	mass density ([2]; 293.15 K)	viscosity ([2]; 298.15 K)	mass density ([2]; 298.15 K)	viscosity ([2]; 303.15 K)	mass density ([2]; 303.15 K)	other results
CCCCCCCCCC(=O)OC [methyl decanoate]	2.125 ± 0.047 mPa·s	872.25 ± 1.8 kg/m3	1.909 ± 0.042 mPa·s	868.16 ± 1.8 kg/m3	1.738 ± 0.038 mPa·s	864.06 ± 1.8 kg/m3	1.588 ± 0.035 mPa·s	859.96 ± 1.7 kg/m3	1.453 ± 0.032 mPa·s	855.85 ± 1.7 kg/m3	1.341 ± 0.029 mPa·s	851.74 ± 1.7 kg/m3	1.245 ± 0.027 mPa·s	847.62 ± 1.7 kg/m3	–	–	–	–	–	–	–
CCCCCCCCCCCC(=O)OC [methyl dodecanoate]	3.151 ± 0.067 mPa·s	869.3 ± 1.7 kg/m3	2.792 ± 0.06 mPa·s	865.39 ± 1.7 kg/m3	2.504 ± 0.054 mPa·s	861.46 ± 1.7 kg/m3	2.263 ± 0.048 mPa·s	857.53 ± 1.7 kg/m3	2.049 ± 0.044 mPa·s	853.61 ± 1.7 kg/m3	1.875 ± 0.04 mPa·s	849.69 ± 1.7 kg/m3	1.729 ± 0.037 mPa·s	845.76 ± 1.7 kg/m3	–	–	–	–	–	–	–
CCCCCCCCCCCCCC(=O)OC [methyl tetradecanoate]	4.557 ± 0.1 mPa·s	867.17 ± 1.8 kg/m3	3.979 ± 0.088 mPa·s	863.35 ± 1.8 kg/m3	3.519 ± 0.078 mPa·s	859.54 ± 1.8 kg/m3	3.093 ± 0.069 mPa·s	855.74 ± 1.7 kg/m3	2.797 ± 0.062 mPa·s	851.94 ± 1.7 kg/m3	2.544 ± 0.056 mPa·s	848.14 ± 1.7 kg/m3	2.308 ± 0.051 mPa·s	844.34 ± 1.7 kg/m3	–	–	–	–	–	–	–
CC1CCCCC1 [methylcyclohexane]	0.733 ± 0.016 mPa·s	769.38 ± 1.6 kg/m3	0.681 ± 0.015 mPa·s	765.06 ± 1.5 kg/m3	0.638 ± 0.014 mPa·s	760.71 ± 1.5 kg/m3	0.599 ± 0.013 mPa·s	756.35 ± 1.5 kg/m3	0.563 ± 0.012 mPa·s	751.98 ± 1.5 kg/m3	0.533 ± 0.011 mPa·s	747.59 ± 1.5 kg/m3	0.505 ± 0.011 mPa·s	743.19 ± 1.5 kg/m3	–	–	–	–	–	–	–
CC1CCCCC1 [methylcyclohexane] + CCCCCCCCCC(=O)OC	–	–	–	–	–	–	–	–	–	–	–	–	–	–	0.733 ± 0.016 mPa·s	769.38 ± 1.6 kg/m3	0.681 ± 0.015 mPa·s	765.06 ± 1.5 kg/m3	0.638 ± 0.014 mPa·s	760.71 ± 1.5 kg/m3	viscosity ([2]; 308.15 K): 0.599 ± 0.013 mPa·s; mass density ([2]; 308.15 K): 756.35 ± 1.5 kg/m3; viscosity ([2]; 313.15 K): 0.563 ± 0.012 mPa·s; mass density ([2]; 313.15 K): 751.98 ± 1.5 kg/m3; viscosity ([2]; 318.15 K): 0.533 ± 0.011 mPa·s; mass density ([2]; 318.15 K): 747.59 ± 1.5 kg/m3; viscosity ([2]; 323.15 K): 0.505 ± 0.011 mPa·s; mass density ([2]; 323.15 K): 743.19 ± 1.5 kg/m3
CC1CCCCC1 [methylcyclohexane] + CCCCCCCCCCCC(=O)OC	–	–	–	–	–	–	–	–	–	–	–	–	–	–	0.733 ± 0.016 mPa·s	769.38 ± 1.6 kg/m3	0.681 ± 0.015 mPa·s	765.06 ± 1.5 kg/m3	0.638 ± 0.014 mPa·s	760.71 ± 1.5 kg/m3	viscosity ([2]; 308.15 K): 0.599 ± 0.013 mPa·s; mass density ([2]; 308.15 K): 756.35 ± 1.5 kg/m3; viscosity ([2]; 313.15 K): 0.563 ± 0.012 mPa·s; mass density ([2]; 313.15 K): 751.98 ± 1.5 kg/m3; viscosity ([2]; 318.15 K): 0.533 ± 0.011 mPa·s; mass density ([2]; 318.15 K): 747.59 ± 1.5 kg/m3; viscosity ([2]; 323.15 K): 0.505 ± 0.011 mPa·s; mass density ([2]; 323.15 K): 743.19 ± 1.5 kg/m3
CC1CCCCC1 [methylcyclohexane] + CCCCCCCCCCCCCC(=O)OC	–	–	–	–	–	–	–	–	–	–	–	–	–	–	0.733 ± 0.016 mPa·s	769.38 ± 1.6 kg/m3	0.681 ± 0.015 mPa·s	765.06 ± 1.5 kg/m3	0.638 ± 0.014 mPa·s	760.71 ± 1.5 kg/m3	viscosity ([2]; 308.15 K): 0.599 ± 0.013 mPa·s; mass density ([2]; 308.15 K): 756.35 ± 1.5 kg/m3; viscosity ([2]; 313.15 K): 0.563 ± 0.012 mPa·s; mass density ([2]; 313.15 K): 751.98 ± 1.5 kg/m3; viscosity ([2]; 318.15 K): 0.533 ± 0.011 mPa·s; mass density ([2]; 318.15 K): 747.59 ± 1.5 kg/m3; viscosity ([2]; 323.15 K): 0.505 ± 0.011 mPa·s; mass density ([2]; 323.15 K): 743.19 ± 1.5 kg/m3
